From patent US10239847B1, “Method for 2-oxothiazolidine-4-carboxylic acid for cellular glutathione” (JBP Group LLC, priority 2016, dated 2019)
Entries after “also recorded” stand apart in the source; their conditions may differ. Like-named read-outs stand apart in the source and are kept apart here.

Experiments:
Human HIV patients [1] = experiment: Clinical: oral daily for 6 months, HIV patients; format: in vivo; conditions: compared to human oral, suggested human oral dose 25 mg/kg/day
Excerpt: (§1) The following tables are a compilation of known results and estimates of NOAEL/LOAEL for various animal species and humans. […] In addition, genetic toxicity studies, Ames Test, Chromosome Aberration, and Mouse Micronucleus have been conducted and all of these studies were negative for genetic toxicity (i.e. non-genotoxic).
(§2) The following is a compilation of known results and estimates of NOAEL/LOAEL for various animal species and humans.

Dog [2] = experiment: Single IV toxicity (NOAEL/LOAEL), dog; format: in vivo; conditions: compared to IV dog, suggested human oral dose 0.025 g/kg
Excerpt: as §1, §2

Rat [3] = conditions: in vivo, iv; cited from earlier work
Human HIV patients [4] = experiment: Clinical: orally up to 9000 mg/day for 2 years, HIV patients; format: in vivo
human [5] = conditions: cited from earlier work
Mouse [6] = conditions: in vivo, iv; cited from earlier work
[7] = test system: tissue glutathione levels; conditions: rodent brains; cited from earlier work
dogs [8] = conditions: dog, in vivo; cited from earlier work
human [9] = experiment: Human intravenous NOAEL calculations; format: in vivo; conditions: oral daily intake 1.75 grams compared to human intravenous NOAEL calculations
Excerpt: (§3) This would then result in an EDI/ADI ratio of 9 grams/day/9 grams/day=1. Without knowing the NOAEL or LOAEL for humans it is difficult to determine a true estimate of margin of safety. […] However, it would be reasonable to assume that a much higher estimate of safety margin would be expected based on the 4-8× estimate comparing oral, daily Procysteine (Cellactin) intake of 1.75 grams to human intravenous NOAEL calculations shown above in section 4.1 and 18 or 96× comparing to dog and rat intravenous NOAEL calculations, respectively shown above in Section 4.1. It is reasonable to conclude that the safety margin would be even greater if compared to animal oral administration data.
as §3, with “Without” for “This would then result in an EDI/ADI ratio of 9 grams/day/9 grams/day=1. Without”

[10] = test system: glutathione in rat lungs and leukocytes; conditions: sulfur amino acid deficient rat diets, supplementation; cited from earlier work
Mouse [11] = experiment: Single IV toxicity (NOAEL/LOAEL), mouse; format: in vivo; conditions: printed 'compared to IV rat', suggested human oral dose 0.025 g/kg
Excerpt: as §1, §2

patients with ARDS [12] = conditions: Phase II, versus placebo; cited from earlier work
Rat [13] = experiment: Once daily IV for 28 days, rat; format: in vivo; conditions: compared to IV rat, suggested human oral dose 0.025 g/kg
Excerpt: as §1, §2

Rat, neonate = conditions: in vivo, iv; cited from earlier work
[14] = test system: cellular glutathione levels; conditions: glutathione-depleting agents administered to otherwise healthy animals; cited from earlier work
liver glutathione levels = conditions: fasted mice, dietary supplementation; cited from earlier work
Human ARDS patients [15] = conditions: IV every 8 hours for 10 days, highest dose tested, cited from earlier work
Human HIV patients [16] = experiment: Clinical: single oral dose then 3000, 4500, 9000 mg/day for 28 days, HIV patients; format: in vivo; conditions: compared to human oral, suggested human oral dose 25 mg/kg/day
Excerpt: as §1, §2

rats [17] = conditions: rat, in vivo; cited from earlier work
Human HIV patients [18] = conditions: oral ≥25 mg/kg daily for 1 week, highest dose tested; cited from earlier work
Human HIV patients [19] = conditions: single IV then six biweekly infusions, 13 administrations, highest dose tested; cited from earlier work
Mouse [20] = conditions: in vivo; cited from earlier work
Dog [21] = experiment: Once daily IV for 28 days, dog; format: in vivo; conditions: compared to IV dog, suggested human oral dose 0.025 g/kg
Excerpt: as §1, §2

Human HIV patients [22] = experiment: Clinical: single IV then six biweekly infusions, 13 administrations, HIV patients; format: in vivo; conditions: compared to human IV; suggested human oral dose 25 mg/kg/day
Excerpt: as §1, §2

Rat [23] = conditions: in vivo, iv; cited from earlier work; remark: listed apart in the source
[24] = Shelf life / purity stability of Cellactin; format: physicochemical
Excerpt: FIG. 9 illustrates Cellactin shelf life estimation by extrapolation. As depicted that upper dotted line indicates an upper acceptance of 100 percent stability. The lower dotted line indicates 99 percent stability. The solid line represents the extrapolation line with the triangles representing raw data. The product has been extrapolated to be stable for 2 years as supplied if stored in original package at ambient temperature and protected from heat and moisture. […] Confirmation of extrapolation assumes the change pattern may continue to fit model for at least 24 months.

Human HIV patients [25] = conditions: cited from earlier work
Human HIV patients [26] = experiment: Clinical: oral ≥25 mg/kg daily for 1 week, HIV patients; format: in vivo; conditions: compared to human oral, suggested human oral dose 25 mg/kg/day
Excerpt: as §1, §2

dogs [27] = experiment: Acute and repeat intravenous NOAEL in dogs; format: in vivo; conditions: recommended daily intake 1.75 g (~25 mg/kg) compared to dog IV NOAEL
Description: (§4) Utilizing animal (dog and rat) data and comparing that to the recommended daily procysteine (Cellactin) intake of 1.75 g or ˜25 mg/kg, that represents 18× to 96× safety margin compared to acute no adverse effect level (NOAEL) and repeat NOAEL intravenous administration in dogs (450 mg/kg) and rats (2400 mg/kg), respectively. The safety margin may be even greater if compared to animal oral administration data.
(§5) Acute NOAEL and repeat NOAEL for intravenous administration in dogs was 450 mg/kg and in rats was 2400 mg/kg, with these values representing the highest dosages intravenously tested and it is assumed that the NOAEL levels would be even higher for oral administration in animals. […] Therefore, it is reasonable to expect that a recommended human oral, daily procysteine (Cellactin) intake of 1.75 grams will be safe and an acceptable daily intake of up to 9 grams orally could also be considered safe.

patients with ARDS [28] = conditions: first Phase II trial, 32 ARDS patients, IV; cited from earlier work
rats [29] = experiment: Acute and repeat intravenous NOAEL in rats; format: in vivo; conditions: recommended daily intake 1.75 g (~25 mg/kg) compared to rat IV NOAEL
Description: as §4, §5

Human ARDS patients [30] = experiment: Clinical: IV 63 mg/kg every 8 hours for 10 days, ARDS patients; format: in vivo; conditions: compared to IV human (ARDS); suggested human oral dose 25 mg/kg/day
Excerpt: as §1, §2

blood glutathione levels = conditions: human, oral 25-129 mg/kg (1.75-9 g/day), dose response manner; cited from earlier work
Dog [31] = conditions: in vivo, iv; cited from earlier work
[32] = test system: intracellular levels of glutathione; conditions: preclinical studies; cited from earlier work
Rat [33] = experiment: Single IV toxicity (NOAEL/LOAEL), rat; format: in vivo; conditions: compared to IV rat, suggested human oral dose 0.025 g/kg
Excerpt: as §1, §2

[34] = test system: tissue glutathione levels; conditions: acutely septic rats; cited from earlier work
Dog [35] = conditions: in vivo, iv; cited from earlier work; remark: listed apart in the source
[36] = human, oral, as used for the EDI/ADI ratio

For `O=C1N[C@H](C(=O)O)CS1` [procysteine, L-2-oxothiazolidine-4-carboxylate], the “Safety Margin Human Oral” value (Human HIV patients [1]) is given as 5X compared, the “Safety Margin Human Oral” value (Dog [2]) is given as 18× compared and the NOAEL (Rat [3]) is given as no less than 2400 mg/kg. For the same molecule, the EDI/ADI ratio (Human HIV patients [4]; 9 grams/day / 9 grams/day) was 1, the “Safety Margin Human Oral” value (Human HIV patients [4]; compared to human oral, 2 years, suggested human oral dose 25 mg/kg/day) was 5X compared and the ADI (Human HIV patients [4]; [36]) was less than 9 grams/day. The “estimated daily intake (EDI)” value (Human HIV patients [4]; [36]) was less than 9 grams/day, the “acceptable daily intake (ADI)” value (Human HIV patients [4]; human, oral, based on 9 grams per day for 2 years) was “up to 9 grams per day” and the safety margin (Human HIV patients [4]; recommended oral daily intake 1.75 g compared to 9 grams per day taken orally for 2 years) was 5 ×. For the same molecule, the “adverse experiences possibly related to treatment” value (human [5]; across all clinical trials) was “only minor adverse experiences”, the “statistically significant adverse events” value (human [5]; human clinical trials) was “No statistical significant adverse events were observed” and the tolerability (human [5]; human clinical trials) was “well tolerated”. The tolerability (human [5]; human clinical trials, listed as procysteine (Cellactin)) was “generally well tolerated without observed adverse effects; also recorded: well tolerated”, the NOAEL (Mouse [6]) was no less than 2400 mg/kg and the tissue glutathione levels [7] was “increased (repleted)”. For the same molecule, the “acute NOAEL and repeat NOAEL, intravenous administration” value (dogs [8]) was 450 mg/kg, the “estimate of safety margin” value (human [9]) was 4-8 × and the “glutathione in rat lungs and leukocytes” value [10] was “preserved”. For the same molecule, the “Safety Margin Human Oral” value (Mouse [11]) was 96× compared, the “efficiency in transporting oxygen to the blood stream (measure of lung function)” value (patients with ARDS [12]) was “to a greater degree than did placebo-treated patients” and the “Safety Margin Human Oral” value (Rat [13]) was 96× compared. The NOAEL (Rat, neonate) was no less than 450 mg/kg, the cellular glutathione levels [14] was “maintained” and the liver glutathione levels (liver glutathione levels) was “increased”. For the same molecule, the NOAEL (Human ARDS patients [15]; expressed per day) was no less than 189 mg/kg/day, the NOAEL (Human ARDS patients [15]) was no less than 63 mg/kg/8 hours and the “Safety Margin Human Oral” value (Human HIV patients [16]) was 5X compared. The “acute NOAEL and repeat NOAEL, intravenous administration” value (rats [17]) was 2400 mg/kg, the NOAEL (Human HIV patients [18]) was no less than 25 mg/kg/day and the NOAEL (Human HIV patients [19]) was no less than 100 mg/kg/day. For the same molecule, the “Mouse Micronucleus, genetic toxicity” value (Mouse [20]) was “negative”, the “Safety Margin Human Oral” value (Dog [21]) was 18× compared and the “Safety Margin Human Oral” value (Human HIV patients [22]) was 4X compared. The NOAEL (Rat [23]) was no less than 2400 mg/kg, the “shelf life (stable as supplied), by extrapolation” value ([24]; original package, ambient temperature, protected from heat and moisture) was 2 years and the purity percent change ([24]; two preparation batches, T0 to T6 (months)) was “No purity percent change”. The NOAEL (Human HIV patients [25]; Human HIV patients, orally up to 9000 mg/day for 2 years, highest dose tested) was no less than 129 mg/kg/day, the “changes in serum chemistry or hematology” value (Human HIV patients [25]; human, up to 9 grams per day orally for 2 years) was “without clinically significant changes” and the “Safety Margin Human Oral” value (Human HIV patients [26]) was 1X compared. For the same molecule, the safety margin (dogs [27]) was 18 ×, the “independence from mechanical ventilation versus placebo” value (patients with ARDS [28]) was “a median of five days earlier” and the safety margin (rats [29]) was 96 ×. The “Safety Margin Human Oral” value (Human ARDS patients [30]) was 8X compared, the blood glutathione levels (blood glutathione levels) was “significant increase” and the NOAEL (Dog [31]) was no less than 450 mg/kg. For the same molecule, the ROS damage [32] was “prevent”, the “intracellular levels of glutathione” value [32] was “increase” and the “Safety Margin Human Oral” value (Rat [33]) was 96× compared. The tissue glutathione levels [34] was “increased (repleted)” and the NOAEL (Dog [35]) was no less than 450 mg/kg.
